Measured values taken from patent US20030229004A1, “Modulation of tumor cells using BER inhibitors in combination with a sensitizing agent and DSBR inhibitors” (Pangene Corporation, priority 2002, published 2003).
Where two headings read alike, the source gives them in different places.

Experiments:
[1] = test system: A2780/cp70 cells; assay: Clonogenic survival in A2780/cp70 (MMR-deficient) ovary carcinoma cells; assay type: cell-based, human
Description: (§1) FIG. 1. Effect of Methoxyamine (MX) on cytotoxicity induced by IUDR in human A2780/cp70 (MMR-deficient) and […]) ovary carcinoma cell lines. Cells were treated for 48 hours with IUDR alone or with IUDR and 6 mM Methoxyamine. Surviving colonies were counted in triplicate 7-10 days after treatment. Error bars, Standard Error. FIG. 5. Effect of Methoxyamine (MX) on cytotoxicity induced by FaraA in human A2780/cp70 (MMR-deficient) and […]) ovary carcinoma cell lines. Cells were treated for 48 hours with FaraA alone or with FaraA and 6 mM Methoxyamine. Surviving colonies were counted in triplicate 7-10 days after treatment. Error bars, Standard Error. For clonogenic survival studies in A2780/cp70 and […], exponentially growing cells were similarly diluted and plated in complete RPMI 1640 medium (+400 μg/ml Hygromycin in […]). […] IUDR-containing medium was then removed in cell populations, cultures were washed with PBS and incubated at 37° C. for 7-10 days in tissue culture medium containing 10% defined FBS (+dThd). Cell populations were treated simultaneously with IUDR and 6 mM Methoxyamine (MX) (Sigma, St Louis, Mo.) for 48 hours; plates were then washed with PBS and surviving colonies were counted after incubation at 37° C. in drug-free medium for 7-10 days.

[2] = test system: A2780/cp70+chr3 cells; assay: Clonogenic survival in A2780/cp70+chr3 (MMR-proficient) ovary carcinoma cells; assay type: cell-based, human
Description: as §1

[3] = test system: HCT116 cells; assay: Clonogenic survival in HCT116 (MMR-deficient) colon carcinoma cells; assay type: cell-based, human
Description: (§2) FIG. 2. […] Cells were treated for 48 hours with IUDR alone (closed symbols) or with IUDR and 6 mM Methoxyamine (open symbols). Surviving colonies were counted in triplicate 7-10 days after treatment. Error bars, Standard Error. FIG. 4. […] Cells were treated for 24 hours with FaraA alone or with FaraA and 6 mM Methoxyamine. Surviving colonies were counted in triplicate 7-10 days after treatment. Error bars, Standard Error. The human colon cancer cell line HCT116 lacks MLH1 expression and their MMR positive subline (HCT116/chr 3-6) has hMLH1 reintroduced by chromosome 3 transfer. For clonogenic survival studies in HCT116 and HCT116/3-6 cells, exponentially growing cells were similarly diluted and plated in complete D-MEM medium (+400 μg/ml G418 in HCT116/3-6 cells). […] IUDR-containing medium was then removed in HCT116 cell populations, cultures were washed with PBS and incubated at 37° C. for 7-10 days in tissue culture medium containing 10% defined FBS (+dThd). HCT116 cell populations were treated simultaneously with IUDR and 6 mM Methoxyamine (MX) (Sigma, St Louis, Mo.) for 48 hours; plates were then washed with PBS and surviving colonies were counted after incubation at 37° C. in drug-free medium for 7-10 days.

[4] = test system: HCT116/3-6 cells; assay: Clonogenic survival in HCT116/3-6 (MMR-proficient) colon carcinoma cells; assay type: cell-based, human; conditions: for IC50: Homo sapiens, HCT-116, 24 hours
Description: as §2

[5] = test system: HCT116 cells; assay: Clonogenic survival of HCT116 with poly IUDR and IUDR (Example 8); assay type: cell-based, human; conditions: 1, 3, 10 μM for 48 hours
Description: Human colon cells (HCT 116) are treated with poly IUDR, an oligonucleotide comprised of IUDR, and IUDR. For clonogenic survival studies in HCT116, exponentially growing cells are similarly diluted and plated in complete D-MEM medium (+400 μg/ml G418 in HCT116/3-6 cells). Poly IUDR and IUDR treatment (1, 3, 10 μM) in HCT116 is for 48 hours in D-MEM (-G418) medium containing 10% dialyzed FBS, and the drug-containing medium is replaced after the initial 24 hours. Compound-containing medium is then removed from the HCT116 cell cultures, the cultures are washed with PBS, and incubated at 37° C. for 7-10 days in tissue culture medium containing 10% defined FBS (+dThd). Surviving colonies are counted after incubation at 37° C. in drug-free medium for 7-10 days.

[6] = test system: EM9 cells; assay: FaraA cytotoxicity in XRCC1 mutant EM9 CHO cells; assay type: cell-based
Description: (§3) FIG. 3. Effect of Methoxyamine (MX) on cytotoxicity induced by FaraA in CHO cells proficient or deficient in Xrcc1 protein. Cells were treated for 24 hours with FaraA alone or with FaraA and 6 mM Methoxyamine. Surviving colonies were counted in triplicate 7-10 days after treatment and the experiment was repeated three times. Error bars, Standard Error.
(§4) AA8 and EM9 cells were obtained from the American Tissue Culture Collection (Manassas, Va.). H9T3 cells were a gift of Dr. L. H. Thompson (Lawrence Livermore National Laboratory, Livermore, Calif.). The parental CHO line clone AA8 was isolated as being heterozygous at the aprt locus; the mutant EM9 clone was isolated from AA8 cells following mutagenesis with EMS and carry a frameshift mutation in the XRCC1 gene resulting in a truncated polypeptide lacking two thirds of the normal sequence. […] H9T3-7-1 cells (referred in the text as H9T3) were derived from EM9 following transfection with a cosmid containing XRCC1 cDNA which corrects the DNA repair defect of EM9.
(§5) We tested whether MX, a small molecule known to be BER inhibitor, could sensitize CHO cells to FaraA cytotoxicity.

[7] = Plasma levels of IPDR in athymic mice; assay type: in vivo; conditions: 250 mg/kg ip; samples 0-350 min; athymic mice with U87 MG tumors
Description: Athymic mice are treated with MX-IPDR or IPDR. Tumor fragment of about 2×2×2 mm derived from Human U87 MG Glioma Cells are implanted s.c. into the axilliary region of the mice. The mice are then treated ip with MX-IPDR at 250 mg/kg or IPDR at 250 mg/kg and samples taken at 0, 2, 5, 15, 45, 75, 120, 150, 210 and 350 min after treatment. The IPDR plasma levels are determined as previously reported by Kinsella et al. {Kinsella, 2000 #121}.

[8] = daily p.o. dosing of IPDR for 6 or 14 days; nude mice; cited from earlier work
[9] = test system: human colon and brain cancer xenograft models; conditions: daily p.o. dosing of IPDR for 6 or 14 days; human colon and brain cancer xenografts; cited from earlier work
[10] = test system: AA8 cells; assay: FaraA cytotoxicity in wild type AA8 CHO cells; assay type: cell-based; conditions: 6 mM MX
Description: as §3, §4, §5

[11] = test system: H9T3 cells; assay: FaraA cytotoxicity in XRCC1 reconstituted H9T3 CHO cells; assay type: cell-based; conditions: 6 mM MX
Description: as §3, §4, §5

[12] = test system: Human MDA-MB-231 breast cancer cells; assay: MDA-MB-231 breast cancer xenografts in athymic mice, with Doxorubicin; assay type: in vivo; conditions: MDA-MB-231 xenograft; i.p. days 1-5, 3 cycles; all mice also Doxorubicin 1.5 mg/kg day 4; measured at day 49
Description: FIG. 6. Effect of Rad51 antisense on tumor growth delay induced by Doxorubicin on Human MDA-MB-231 Breast cancer cells grown as xenografts in Athymic Mice. The mice were treated i.p. with Rad51 antisense at 5 mg/kg on days 1 through 5, MX at 2 mg/kg on days 1 through 5, and with Doxorubicin at 1.5 mg/kg on day 4. The cycle was repeated three times with a two-day rest period between cycles.
(§6) Athymic mice are treated with Rad51 antisense alone, MX alone, and Rad51 antisense in combination with MX. All mice are also treated with Doxorubicin. Tumor fragment of about 2×2×2 mm derived from Human MDA-MB-231 breast cancer cells Athymic mice are implanted s.c. into the axilliary region of the mice. The mice are treated i.p. with Rad51 antisense at 5 mg/kg on days 1 through 5, MX at 2 mg/kg on days 1 through 5, and Doxorubicin at 1.5 mg/kg on day 4. The cycle is repeated three times with a two-day rest period between cycles. The animals are euthanatized 49 days after the beginning of the experiment, and the tumor size is measured by calipers.

[13] = test system: Human U87 MG glioma cells; assay: U87 MG glioma xenografts in athymic mice, with IPDR; assay type: in vivo; conditions: U87 MG xenograft; i.p. days 1-5, 3 cycles; all mice also IPDR 250 mg/kg day 4; measured at day 49
Description: as §6, with “IPDR.” for “Doxorubicin.”, “U87 MG glioma” for “MDA-MB-231 breast cancer”, “cells” for “cells Athymic mice”, “IPDR” for “Doxorubicin”, “250” for “1.5”

[14] = test system: wild type and Polβ-complemented mouse fibroblasts; conditions: cited from earlier work
[15] = IUDR 48 hours, colonies counted after 7-10 days, read-out: IC50 for IUDR alone

Compound: O=c1[nH]c(=O)n([C@H]2C[C@H](O)[C@@H](CO)O2)cc1I [IUDR, IodoUridineDeoxyRibose]
- IC50 [1, 15]: 8 µM
- IC50 ([1]; IUDR + 6 mM MX for 48 hours, read-out: IC50 for IUDR with MX treatment): 1 µM
- Response to IUDR alone and to MX+IUDR compared with A2780/cp70 ([2]; MMR positive subline A2780/cp70 chr3): qualitatively similar
- IC50 [3, 15]: 4.5 µM
- IC50 ([3]; IUDR + MX for 48 hours (method 6 mM MX, result sentence 12 mM MX), read-out: IC50 for IUDR with MX treatment): 0.5 µM
- Response to IUDR alone and to MX+IUDR compared with HCT116 ([4]; MMR positive subline HCT116/chr3-6): qualitatively similar
- Cytotoxicity in clonogenic survival [5]: greatly sensitized

Compound: Nc1nc(F)nc2c1ncn2[C@@H]1O[C@H](CO)[C@@H](O)[C@@H]1O [FaraA, Fludarabine]
- IC50 ([1]; Homo sapiens, FaraA + 6 mM MX, 48 hours, read-out: IC50 for FaraA with 6 mM MX): 4 µM
- IC50 ([1]; Homo sapiens, FaraA alone, 48 hours, read-out: IC50 for FaraA alone): 11 µM
- IC50 ([3]; Homo sapiens, HCT-116, FaraA + 6 mM MX, 24 hours, read-out: IC50 for FaraA with 6 mM MX): 3 µM
- IC50 ([3]; Homo sapiens, HCT-116, FaraA alone, 24 hours, read-out: IC50 for FaraA treatment): 9 µM
- IC50 ([4]; HCT116/3-6 cells, FaraA + 6 mM MX, read-out: IC50 for FaraA in the presence of 6 mM MX): 3 µM
- IC50 ([4]; HCT116/3-6 cells, FaraA alone, read-out: IC50 for FaraA): 5 µM
- IC50 ([6]; Cricetulus griseus, CHO, XRCC1 mutant EM9 cells, FaraA alone, 24 hours): 7.5 µM

Compound: O=c1ncc(I)cn1[C@H]1C[C@H](O)[C@@H](CO)O1 [IPDR, 5-iodo-2-pyrimidinone-2′-deoxyribose]
- Plasma IPDR levels required to act as a radiosensitizer [7]: acceptable level
- Systemic toxicity [8]: no significant systemic toxicity
- Tumor radiosensitization [9]: significant radiosensitization

Compound: CON [MX, Methoxyamine]
- Sensitization to IUDR-induced cytotoxicity by MX ([1]; 6 mM MX, 48 hours): greatly sensitized
- Sensitization to IUDR-induced cytotoxicity by MX ([2]; cp70/ch3 cells, 6 mM MX, 48 hours): greatly sensitized
- Sensitization to IUDR-induced cytotoxicity by MX ([3]; 12 mM MX as printed): greatly sensitized
- Sensitization to IUDR-induced cytotoxicity by MX ([4]; HCT116/3-6 cells, 12 mM MX as printed): greatly sensitized
- Sensitization to FaraA by MX ([6]; EM9 cells, 6 mM MX): further sensitized
- Sensitization to FaraA by MX [10]: significantly sensitized
- Sensitization to FaraA by MX [11]: significantly sensitized
- Tumor size and tumor cell killing [12]: Reduction in tumor size and tumor cell killing
- Tumor size and tumor cell killing [13]: Reduction in tumor size and tumor cell killing
- Sensitization to the cytotoxicity of Ganciclovir [14]: sensitized
